BigSolDB 2.1

CC(=O)Nc1ccc(CC(=O)O)cc1
solubility (mole fraction)
Conditions	278.15 K	283.15 K	288.15 K	293.15 K	298.15 K	303.15 K	308.15 K	313.15 K	318.15 K
in 2-butanone	0.00496	0.00586	0.00689	0.00821	0.00975	0.0115	0.0137	0.0162	0.0192
in acetone	0.00366	0.00441	0.00534	0.00646	0.0078	0.00942	0.0114	0.0136	0.0161
in acetonitrile	0.00093	0.00116	0.00142	0.00175	0.00215	0.00262	0.00318	0.00381	0.00455
in cyclohexane	–	1.89e-06	2.51e-06	3.4e-06	4.44e-06	5.83e-06	7.44e-06	9.5e-06	1.21e-05
in ethanol	0.0062	0.00723	0.00851	0.0102	0.0121	0.0143	0.0171	0.0201	0.0238
in ethyl acetate	0.000627	0.000783	0.000985	0.00126	0.00156	0.00193	0.00238	0.00291	0.00357
in isopropanol	0.00293	0.00353	0.00437	0.0054	0.00666	0.00823	0.0101	0.0123	0.0149
in methanol	0.00792	0.00927	0.0113	0.0138	0.0169	0.0207	0.0249	0.0303	0.0369
in n-butanol	0.00401	0.0048	0.0058	0.00711	0.00871	0.0105	0.0126	0.0149	0.0178
in n-propanol	0.00538	0.00628	0.00745	0.00889	0.0105	0.0126	0.0149	0.0175	0.0204
in toluene	2.62e-06	3.44e-06	4.5e-06	5.88e-06	7.6e-06	9.71e-06	1.24e-05	1.59e-05	2.04e-05
in water	0.000163	0.000208	0.000264	0.000336	0.000421	0.000534	0.000661	0.000826	0.00104
